# Experimental data from patent US20100120787A1, “MODIFICATION OF AMYLOID-BETA LOAD IN NON-BRAIN TISSUE” (MODGENE, LLC, priority 2008, published 2010).
# Like-named read-outs stand apart in the source and are kept apart here.
# How the values were obtained:
# Aβ accumulation in brain = conditions: intrathecal delivery by osmotic minipumps, guinea pigs; cited from earlier work
# Notch signaling = conditions: while reducing Aβ production; cited from earlier work
# [1] = test system: primary neurons prepared from cerebral cortex; conditions: embryonic day 18 rats; cited from earlier work
# [2] = humans; cited from earlier work
# [3] = pH 8; cited from earlier work
# [4] = cited from earlier work
# Aβ hexamers in plasma = assay: Plasma (blood) Aβ levels in mice after intraperitoneal STI-571, Western blot/ELISA; type: in vivo, mouse
# Procedure: […]. Wild-type C57Bl/6 and DBA/2J male mice (age 8-12 weeks) were administered drug or vehicle twice daily for 7 days by intraperitoneal injection. […]. […] See, for example, Gleevec Prescribing Information 2003 revision T2003-09; Printed in U.S.A. 89019001 (Novartis), incorporated herein by reference.
# Animals were sacrificed 12 hr after the last injection. Individual mice were anesthetized with isoflurane and blood samples (100-300ul) taken by cardiac puncture with heparinized syringes. Samples were placed on ice for 30 minutes in the presence of EDTA and then centrifuged for 20 minutes at 16,000×g at 4° C. The plasma fraction was removed and stored at −80° C. Brains were removed and frozen rapidly on dry ice and stored at −80° C.
# Detection of mouse Aβ1-40 in blood and brain samples was performed by using a commercially available immunoassay kit (Biosource mouse Aβ1-40, Catalog No. KMB3481, Invitrogen, Carlsbad, Calif.) or by Western blot. Mouse brain samples were prepared by homogenizing brain tissue in a polytron in the presence of 5M guanidine HCl and 50 mM Tris HCl, pH 8.0 as described in the assay protocol. […]
# Blood samples were diluted 1:5 in standard diluent buffer. Samples were assayed in duplicate and OD450 measured on a Tecan infinite 2000 plate reader. […]
# [5] = statement in words, cited from earlier work
# [6] = cited from earlier work; remark: listed apart in the source
compound,measurement,setting,value
"6-(2,6-dichlorophenyl)-8-methyl-2-(methylsulfanylphenyl-amino)-8H-pyrido[2,3-d]pyrimidin-7-one [inhibitor 2]",Aβ accumulation in brain,Aβ accumulation in brain,decrease in Aβ accumulation in brain
same,effect on Notch signaling,Notch signaling,without affecting Notch signaling
same,production of Aβ,[1],reduce production of Aβ
"COc1cc([S+](C)[O-])ccc1-c1nc2ncccc2[nH]1 (centres unmarked) [ARL115, sulmazole]",CNS side effects,[2],lack the CNS side effects
same,log P,[3],1.17
COc1ccc(-c2nc3ncccc3[nH]2)c(OC)c1.Cl [ARL-57],CNS side effects,[2],spectacular bright color vision
same,log P,[3],2.59
Cc1ccc(NC(=O)c2ccc(CN3CCNCC3)cc2)cc1Nc1nccc(-c2cccnc2)n1 [N-desmethyl derivative],plasma AUC of metabolite relative to the AUC for imatinib,[4]; humans,about 15%
same,elimination half-life,[4]; oral administration in healthy volunteers,~40 h
Cc1ccc(NC(=O)c2ccc(CN3CCN(C)CC3)cc2)cc1Nc1nccc(-c2cccnc2)n1 [STI-571],reduction of plasma levels of Aβ,"Aβ hexamers in plasma; 20 mg/kg IP twice daily for 7 days, B6 mice",approximately 50%
same,reduction of circulating Aβ,"Aβ hexamers in plasma; highest dose (100 mg/kg) IP twice daily for 7 days, young D2 mice",approximately 75%
same,penetration of the blood-brain barrier,[5],poor penetration of the blood-brain barrier
same,penetration of the blood-brain barrier,[5]; listed as GLEEVEC/STI-571,poor penetration of the blood-brain barrier
same,penetration of the blood-brain barrier,[5]; listed as imatinib,does not substantially penetrate the blood brain barrier
same,absorption after oral administration,"[6]; human, in vivo, po",rapidly absorbed
same,mean AUC versus dose,"[6]; human, in vivo",did not increase proportionally with increasing dose
same,Cmax (time),"[6]; pediatric patients, oral",2 to 4 h
